The values that follow are results of earlier work, collected in patent publication US20250312405A1, “FOOD SUPPLEMENT COMPRISING NEOHESPERIDIN DIHYROCHALCONE AND PEPPERMINT OIL” (priority 2022, published 2025).

Molecules are shown by their SMILES.

For data set [1], the system named is Campylobacter jejuni. Particulars: dose of 0.2 mM.
The test system of data set [2] is Campylobacter jejuni. Particulars: doses of 0.25 mM.
The subject of data set [3] is HT-29 cells co-cultured with immune cells. The following applies: doses of 50 μmoles.

Consider `Cc1ccc(C(C)C)cc1O` [carvacrol], for which the cell invasion entry in the data set with Campylobacter jejuni [1] is reported as “reduced cell invasion”. Moreover, the “effect on the motility of Campylobacter jejuni” value in the data set on Campylobacter jejuni [2] is on record as “had an effect on the motility”.

For the compound `COc1cc(/C=C/C(=O)CC(=O)/C=C/c2ccc(O)c(OC)c2)ccc1O` [curcumin], in data set [3], the “immune-induced epithelial disfunction by Campylobacter jejuni” value is listed as “mitigates the immune-induced epithelial disfunction”.
